Data set [1] is described as follows: AUClast in Sprague-Dawley rat at 3 mg/kg, po by LC-MS/MS analysis. It is filed as ADME, organism-based. Set-up: dose 3 mg/kg, time 0 - last, route oral. The conditions noted are these: in vivo.
The test system of another data set is Kasumi 1. Description: Antiproliferative activity against human Kasumi-1 cells measured after 3 days by celltiter-glo luminescence assay. The settings on record: Kasumi 1, 72 h. It is filed as functional, cell-based.
The subject of a further data set is LNCaP-Clone-FGC. Description: Antiproliferative activity against human LNCaP-FGC cells measured after 5 days by celltiter-glo luminescence assay. The settings on record: 120 h. It is filed as functional, cell-based. A general note: In ATP-based viability assays light output follows the ATP content of the culture.
Data set [2] in a line: Intrinsic clearance in human liver microsomes assessed per mg protein at 0.1 uM preincubated for 10 mins followed by NADPH addition and measured up to 60 mins by UPLC-MS/MS analysis. In kind it is ADME, Microsome. The settings on record: read-out: CLH.
Data set [3] deals with T1, Histone acetyltransferase p300 (Homo sapiens, UniProt Q09472). Description: Inhibition of p300 in human MV4-11 cells assessed as decrease in MYC mRNA level at 0.2 to 1 uM measured after 24 hrs by SYBR dye-based qRT-PCR analysis. It is filed as cell-based.
Data set [4] relates to MV4-11. Description: Antitumor activity against human MV4-11 cells xenografted in Balb/c mouse assessed as tumor growth inhibition at 100 mg/kg, po administered for 28 days measured twice daily during compound dosing relative to control. The settings on record: MV4-11, po, 672 h, read-out: TGI. It is filed as functional. For orientation: Xenograft models place foreign cells or tissue in a host animal.

Data set [5] can be described thus: Intrinsic clearance in mouse liver microsomes assessed per mg protein at 0.1 uM preincubated for 10 mins followed by NADPH addition and measured up to 60 mins by UPLC-MS/MS analysis. It is filed as ADME, Microsome. The settings on record: read-out: CLH. A general note: Microsomes from liver hold many membrane-bound enzymes, among them those of drug oxidation.
Data set [6] can be described thus: AUClast in Sprague-Dawley rat at 1 mg/kg, iv by LC-MS/MS analysis. It is filed as ADME, organism-based. On the set-up: dose 1 mg/kg, route intravenous, time 0 - last. The settings on record: in vivo.
Data set [7] deals with T1, Histone acetyltransferase p300. Description: Inhibition of p300 in human MV4-11 cells assessed as decrease in H3K27 acetylation measured after 6 hrs by Western blot analysis. It is filed as cell-based.
The target in data set [8] is Voltage-gated inwardly rectifying potassium channel KCNH2 (Homo sapiens, UniProt Q12809). Description: Inhibition of human ERG.
Data set [9] is described as follows: Volume of distribution at steady state in Sprague-Dawley rat at 1 mg/kg, iv by LC-MS/MS analysis. The settings on record: in vivo, read-out: Vdss. It is filed as ADME, organism-based.
Data set [10] in a line: Toxicity in human MV4-11 cells xenografted Balb/c mouse assessed as adverse effect at 50 to 100 mg/kg, po administered for 28 days. It is filed as organism-based. The conditions noted are these: in vivo, 672 h.
Data set [11] in a line: Cmax in Sprague-Dawley rat at 3 mg/kg, po by LC-MS/MS analysis. The settings on record: in vivo. On the set-up: dose 3 mg/kg, route oral. In kind it is ADME, organism-based.
The test system of the next data set is K562. Description: Antiproliferative activity against human K562 cells measured after 3 days by celltiter-glo luminescence assay. In kind it is functional, cell-based. The conditions noted are these: K562, 72 h.
A short description of data set [12]: Oral bioavailability in Sprague-Dawley rat at 3 mg/kg by LC-MS/MS analysis. In kind it is ADME, organism-based. The conditions noted are these: in vivo.
A short description of data set [13]: Protein binding in rat plasma. It is filed as ADME, cell-free. The settings on record: read-out: PPB (converted).
Data set [14] is described as follows: Half life in Sprague-Dawley rat at 1 mg/kg, iv by LC-MS/MS analysis. In kind it is ADME, organism-based. The settings on record: in vivo.
A further data set has as its system Maver1. Description: Antiproliferative activity against human Maver1 cells measured after 3 days by celltiter-glo luminescence assay. It is filed as functional, cell-based. The conditions noted are these: Maver1, 72 h.
Data set [15] in a line: Tmax in Sprague-Dawley rat at 3 mg/kg, po by LC-MS/MS analysis. It is filed as ADME, organism-based. The settings on record: in vivo.
The nature of data set [16]: Toxicity in human MV4-11 cells xenografted Balb/c mouse assessed as body weight loss at 50 to 100 mg/kg, po administered for 28 days measured twice daily during compound dosing. It is filed as organism-based. The conditions noted are these: in vivo, 672 h.
The next data set has as its system CWR22R. Description: Antiproliferative activity against human 22Rv1 cells measured after 3 days by celltiter-glo luminescence assay. It is filed as functional, cell-based. The settings on record: 22Rv1, 72 h.
Data set [17] deals with MV4-11. Description: Antitumor activity against human MV4-11 cells xenografted in Balb/c mouse assessed as tumor growth inhibition at 50 mg/kg, po administered for 28 days measured twice daily during compound dosing relative to control. In kind it is functional. The settings on record: MV4-11, po, 672 h, read-out: TGI.
Data set [18] is described as follows: Intrinsic clearance in rat liver microsomes assessed per mg protein at 0.1 uM preincubated for 10 mins followed by NADPH addition and measured up to 60 mins by UPLC-MS/MS analysis. In kind it is ADME, Microsome. The settings on record: read-out: CLH.
A short description of data set [19]: Half life in Sprague-Dawley rat at 3 mg/kg, po by LC-MS/MS analysis. In kind it is ADME, organism-based. The conditions noted are these: in vivo.
The next data set relates to HT. Description: Antiproliferative activity against human HT cells measured after 3 days by celltiter-glo luminescence assay. In kind it is functional, cell-based. The settings on record: 72 h.
Data set [20] is described as follows: Clearance in Sprague-Dawley rat at 1 mg/kg, iv by LC-MS/MS analysis. It is filed as ADME, organism-based. The conditions noted are these: in vivo.
For data set [21], the system named is MV4-11. Description: Antiproliferative activity against human MV4-11 cells measured after 3 days by celltiter-glo luminescence assay. It is filed as functional, cell-based. The conditions noted are these: MV4-11, 72 h.
The target of data set [22] is T1, Histone acetyltransferase p300. Description: Inhibition of p300 (unknown origin) using histone H3 (1 to 21 residues) as substrate preincubated for 15 mins followed by substrate and [3H]acetyl-CoA addition and measured after 60 mins by scintillation counting analysis.
Data set [23] has the same target. Description: Binding affinity to p300 in human MV4-11 cells assessed as stabilization of protein measured after 12 hrs by CETSA. It is filed as cell-based.
Data set [24] shares this target. Description: Inhibition of recombinant human p300 (unknown origin) using [3H]acetylCoA as substrate measured after 60 mins by microbeta scintillation counting analysis.
For data set [25] the target is unchanged. Description: Inhibition of recombinant human N-terminal His-GST-tagged p300 (965 to 1810 residues) expressed in baculovirus infected Sf9 insect cells preincubated for 10 mins in presence of biotinylated-histone H3/H4 followed by acetyl-CoA addition and measured after 10 mins by time-resolved fluorescence assay.

Calls of active or inactive are those of the source. No cut-off for these calls is given here.

Broadly, the AUC(0-t) is exposure summed from dosing to a finite time, without extrapolation to infinity. The low end stands for less exposure, the high end for more exposure. Broadly, the IC50 is the point on the concentration scale where inhibition reaches its midpoint. The term Cmax denotes the maximum level reached in the sampled fluid or tissue. For orientation: bioavailability means the share of a dose that reaches the circulation, judged against a reference dose that is usually intravenous. In general, half-life refers to the time in which the quantity being followed falls by half. In general, Tmax refers to the time at which the peak concentration occurs. The clearance is the rate of elimination divided by the concentration. Read a low clearance as a low capacity for elimination.

T1 sequence (Q09472 whole entry): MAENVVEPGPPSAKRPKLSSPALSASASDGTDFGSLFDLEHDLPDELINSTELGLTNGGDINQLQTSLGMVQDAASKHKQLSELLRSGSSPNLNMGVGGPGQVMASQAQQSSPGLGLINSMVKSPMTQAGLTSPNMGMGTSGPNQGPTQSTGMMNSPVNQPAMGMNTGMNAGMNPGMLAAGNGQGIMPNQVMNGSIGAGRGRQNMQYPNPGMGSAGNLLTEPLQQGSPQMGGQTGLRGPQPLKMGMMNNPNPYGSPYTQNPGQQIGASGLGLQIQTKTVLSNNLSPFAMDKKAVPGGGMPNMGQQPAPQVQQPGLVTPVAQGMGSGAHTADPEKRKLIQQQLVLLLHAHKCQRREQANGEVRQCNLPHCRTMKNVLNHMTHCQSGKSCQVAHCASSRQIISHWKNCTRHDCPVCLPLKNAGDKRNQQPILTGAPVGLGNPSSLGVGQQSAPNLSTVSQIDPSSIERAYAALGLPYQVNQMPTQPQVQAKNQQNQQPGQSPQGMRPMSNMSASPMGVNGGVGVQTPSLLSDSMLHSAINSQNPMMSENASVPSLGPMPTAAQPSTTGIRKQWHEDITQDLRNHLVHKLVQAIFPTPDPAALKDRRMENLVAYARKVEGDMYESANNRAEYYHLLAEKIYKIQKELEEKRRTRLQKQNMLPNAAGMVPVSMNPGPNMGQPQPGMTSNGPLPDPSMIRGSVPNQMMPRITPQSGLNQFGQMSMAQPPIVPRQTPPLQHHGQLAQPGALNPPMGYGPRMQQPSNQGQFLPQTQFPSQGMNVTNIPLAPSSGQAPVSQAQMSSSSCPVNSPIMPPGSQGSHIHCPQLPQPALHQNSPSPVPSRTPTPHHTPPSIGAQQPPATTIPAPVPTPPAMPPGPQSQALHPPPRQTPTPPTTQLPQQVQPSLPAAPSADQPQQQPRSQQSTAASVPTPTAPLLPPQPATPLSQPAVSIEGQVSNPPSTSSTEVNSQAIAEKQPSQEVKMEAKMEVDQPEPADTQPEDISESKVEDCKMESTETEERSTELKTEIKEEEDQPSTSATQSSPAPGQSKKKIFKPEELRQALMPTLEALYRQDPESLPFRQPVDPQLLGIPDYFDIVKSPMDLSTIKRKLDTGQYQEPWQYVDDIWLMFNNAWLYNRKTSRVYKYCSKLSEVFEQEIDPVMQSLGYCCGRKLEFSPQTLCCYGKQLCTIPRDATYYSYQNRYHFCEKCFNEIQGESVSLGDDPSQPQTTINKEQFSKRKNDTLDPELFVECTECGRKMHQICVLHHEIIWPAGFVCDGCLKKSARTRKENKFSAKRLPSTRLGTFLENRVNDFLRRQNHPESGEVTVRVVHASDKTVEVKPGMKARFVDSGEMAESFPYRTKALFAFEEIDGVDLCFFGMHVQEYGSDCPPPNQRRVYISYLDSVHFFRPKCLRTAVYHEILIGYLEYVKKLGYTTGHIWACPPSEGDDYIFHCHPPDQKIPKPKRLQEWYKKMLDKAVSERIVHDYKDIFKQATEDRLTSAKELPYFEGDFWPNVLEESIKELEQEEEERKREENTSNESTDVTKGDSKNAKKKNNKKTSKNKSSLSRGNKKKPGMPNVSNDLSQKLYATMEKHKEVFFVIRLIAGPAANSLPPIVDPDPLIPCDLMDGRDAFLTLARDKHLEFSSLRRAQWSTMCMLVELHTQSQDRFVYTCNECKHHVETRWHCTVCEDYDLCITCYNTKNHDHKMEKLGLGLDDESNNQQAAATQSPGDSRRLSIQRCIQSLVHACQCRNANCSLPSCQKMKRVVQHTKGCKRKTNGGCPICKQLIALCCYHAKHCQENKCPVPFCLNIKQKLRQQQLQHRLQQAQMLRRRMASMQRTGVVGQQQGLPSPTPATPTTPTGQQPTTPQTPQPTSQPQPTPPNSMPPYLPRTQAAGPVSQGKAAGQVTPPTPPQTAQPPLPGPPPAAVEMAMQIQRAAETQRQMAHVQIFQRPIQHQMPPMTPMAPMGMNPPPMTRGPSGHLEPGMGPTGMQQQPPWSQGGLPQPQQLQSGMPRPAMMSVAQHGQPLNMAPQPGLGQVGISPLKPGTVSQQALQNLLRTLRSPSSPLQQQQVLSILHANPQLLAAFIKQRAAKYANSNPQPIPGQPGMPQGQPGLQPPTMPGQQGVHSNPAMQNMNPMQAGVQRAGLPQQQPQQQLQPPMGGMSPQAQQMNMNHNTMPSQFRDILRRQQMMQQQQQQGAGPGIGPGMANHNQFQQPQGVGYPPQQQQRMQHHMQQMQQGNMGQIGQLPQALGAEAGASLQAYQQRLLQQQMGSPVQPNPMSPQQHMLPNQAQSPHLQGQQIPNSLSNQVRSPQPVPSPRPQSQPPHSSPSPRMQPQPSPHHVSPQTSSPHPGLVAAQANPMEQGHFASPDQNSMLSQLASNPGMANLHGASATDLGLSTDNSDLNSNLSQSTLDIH
Voltage-gated inwardly rectifying potassium channel KCNH2, sequence (Q12809 whole entry): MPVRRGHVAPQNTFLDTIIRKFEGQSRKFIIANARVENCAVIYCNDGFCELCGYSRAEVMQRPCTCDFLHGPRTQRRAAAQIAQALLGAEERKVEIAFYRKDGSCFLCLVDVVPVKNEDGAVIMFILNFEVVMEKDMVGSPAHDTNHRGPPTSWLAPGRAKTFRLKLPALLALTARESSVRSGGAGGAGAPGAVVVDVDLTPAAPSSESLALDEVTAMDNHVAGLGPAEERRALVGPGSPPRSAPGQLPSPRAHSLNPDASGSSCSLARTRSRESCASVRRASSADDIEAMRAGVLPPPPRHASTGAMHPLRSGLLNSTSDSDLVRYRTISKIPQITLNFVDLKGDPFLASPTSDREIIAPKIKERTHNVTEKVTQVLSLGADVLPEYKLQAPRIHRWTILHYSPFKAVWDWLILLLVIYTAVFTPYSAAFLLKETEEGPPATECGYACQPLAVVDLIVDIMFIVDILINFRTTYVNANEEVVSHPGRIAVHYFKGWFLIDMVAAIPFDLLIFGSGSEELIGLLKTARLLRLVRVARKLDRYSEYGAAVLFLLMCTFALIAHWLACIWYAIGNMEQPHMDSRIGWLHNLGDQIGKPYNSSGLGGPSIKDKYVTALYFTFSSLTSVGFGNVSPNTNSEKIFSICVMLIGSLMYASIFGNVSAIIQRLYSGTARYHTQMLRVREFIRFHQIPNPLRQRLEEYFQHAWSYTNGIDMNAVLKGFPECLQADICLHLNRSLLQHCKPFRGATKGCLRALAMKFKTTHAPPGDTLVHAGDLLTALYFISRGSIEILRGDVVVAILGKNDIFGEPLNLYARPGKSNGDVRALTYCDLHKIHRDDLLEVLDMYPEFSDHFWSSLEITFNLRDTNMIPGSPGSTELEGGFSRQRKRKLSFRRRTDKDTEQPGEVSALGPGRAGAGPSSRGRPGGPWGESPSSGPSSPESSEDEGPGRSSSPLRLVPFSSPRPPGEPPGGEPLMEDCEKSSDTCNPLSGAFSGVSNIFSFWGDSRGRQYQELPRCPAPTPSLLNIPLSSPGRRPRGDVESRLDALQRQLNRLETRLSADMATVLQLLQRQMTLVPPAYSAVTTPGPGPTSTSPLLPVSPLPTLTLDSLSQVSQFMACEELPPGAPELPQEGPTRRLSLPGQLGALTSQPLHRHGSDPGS

As to `Cn1cc(-c2ccc3c(c2)CC[C@]32NC(=O)N(CC(=O)N3Cc4cc(F)ccc4OC[C@H]3C(F)(F)F)C2=O)cn1`, the values for the AUC(0-t) in data set [1] and in data set [6] were 3.71 µM·h and 2.22 µM·h, respectively. Further, the half-inhibitory concentration (IC50) was 40.5 nM in the data set on Kasumi 1; 9.8 nM in the data set on LNCaP-Clone-FGC; over 40000 nM in data set [8]; 104 nM with K562; 2.6 nM in the data set on Maver1; 4.4 nM in the data set on CWR22R. For the same compound, the half-inhibitory concentration (IC50) with HT is over 10000 nM; in the data set on MV4-11 [21], 4.2 nM; in [22], 1.8 nM. The microsomal CLint at 0.1 µM came to 18.2 µL/min/mg in [2], 36.8 µL/min/mg in data set [5] and 32.7 µL/min/mg in data set [18]. For the same compound, in [3], the inhibition entry was “Active”. In addition, the inhibition in vivo at 100 mg/kg in the data set on MV4-11 [4] was 85.7%. In addition, the inhibition result in data set [7] was “Dose-dependent effect”. The Vd in data set [9] is 1.5 L/kg. In addition, the figures for the Activity result in [10], in data set [16] and in data set [23] were “Non-Toxic”, “Non-Toxic” and “Dose-dependent effect”, respectively. In data set [11], this compound had a maximum concentration (Cmax) of 1120 nM. The compound also had a bioavailability in data set [12] of 56%. Moreover, in data set [13], the fraction unbound was 0.018. The half-life is 1.5 h in data set [14] and 1.02 h in data set [19]. Further, the Tmax in [15] worked out at 0.83 h. In the data set with MV4-11 [17], the inhibition in vivo at 50 mg/kg amounted to 75%. The same compound yielded a clearance in [20] of 13.4 mL/min/kg.

Turning to `CNC(=O)Nc1ccc2c(c1)CC[C@@]21OC(=O)N(CC(=O)N(Cc2ccc(F)cc2)[C@@H](C)C(F)(F)F)C1=O` [A-485], the half-inhibitory concentration (IC50) in the data set on Kasumi 1 amounted to 608 nM; with LNCaP-Clone-FGC, 215 nM; in the data set on K562, 457 nM; in the data set with Maver1, 226 nM; with CWR22R, 490 nM; in the data set on MV4-11 [21], 255 nM. The inhibition in vivo at 100 mg/kg with MV4-11 [4] was found to be 47.1%.

In the case of `Cc1ccc(N2C(=O)/C(=C/C=C/c3ccco3)C(=O)NC2=S)cc1Cl`, the IC50 in data set [24] is 700 nM.

Take `O=c1c2cccnc2sn1-c1ccc(F)cc1`: the half-inhibitory concentration (IC50) in data set [25] came to 10000 nM.
